Results from patent US9404081B2, “Pyruvate kinase activators for use in therapy” (AGIOS PHARMACEUTICALS, INC., priority 2011, dated 2016).

What was measured:
Assay type in all cases: biochemical
PKR R510Q = PKR R510Q (Homo sapiens, UniProt P30613, R510Q); experiment: PKR R510Q Single Point Percent Activation Assay; settings: read-out: Act. % 510Q
Procedure: PKR R510Q Single Point Percent Activation Assay
(§1) A compound described herein was diluted with DMSO and tested at 1 μM concentration. The enzyme was diluted in 1× Buffer: (100 mM KCl, 50 mM Tris 7.5, 5 mM MgCl2, 1 mM DTT, 0.03% BSA). 2 μL of compound solution was first added into wells, and then 180 μL of enzyme solution was added. Assays were assembled except for ADP, and plates were stored for 60 minutes at RT. 20 μL ADP was added to start the assay and assay output was evaluated using OD340 at SpectraMax. The assay was run at room temperature.
Final concentration: PKR R510Q (40 ng/well), Tris pH 7.5 (50 mM), KCl (100 mM), MgCl2 (5 mM), ADP (0.2 mM), PEP (0.11 mM), NADH (180 μM), LDH (0.5 units, Sigma 59023), DTT (1 mM) and BSA (0.03%).

PKR R532W = PKR R532W (Homo sapiens, UniProt P30613, R532W); experiment: PKR R532W Single Point Percent Activation Assay; settings: read-out: Act, % 532W
Sequence of PKR R532W (P30613 whole entry R532W): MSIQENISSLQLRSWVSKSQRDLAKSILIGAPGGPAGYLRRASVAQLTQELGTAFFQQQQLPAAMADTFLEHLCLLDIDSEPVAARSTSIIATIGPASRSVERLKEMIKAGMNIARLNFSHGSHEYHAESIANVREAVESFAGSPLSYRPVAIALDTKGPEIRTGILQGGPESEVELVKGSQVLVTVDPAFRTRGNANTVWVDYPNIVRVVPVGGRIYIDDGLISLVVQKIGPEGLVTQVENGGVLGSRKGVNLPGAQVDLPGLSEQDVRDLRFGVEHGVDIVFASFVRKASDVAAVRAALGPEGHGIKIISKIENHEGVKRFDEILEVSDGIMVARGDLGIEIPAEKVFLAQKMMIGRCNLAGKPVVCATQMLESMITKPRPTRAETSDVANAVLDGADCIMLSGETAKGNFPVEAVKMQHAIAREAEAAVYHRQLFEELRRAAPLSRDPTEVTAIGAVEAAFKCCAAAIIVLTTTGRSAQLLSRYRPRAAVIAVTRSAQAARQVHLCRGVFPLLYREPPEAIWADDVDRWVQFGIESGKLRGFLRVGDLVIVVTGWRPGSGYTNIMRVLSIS
Procedure: PKR R532W Single Point Percent Activation Assay
as §1
Final concentration: PKR R532W (100 ng/well), Tris pH 7.5 (50 mM), KCl (100 mM), MgCl2 (5 mM), ADP (0.36 mM), PEP (0.1 mM), NADH (180 μM), LDH (0.5 units, Sigma 59023), DTT (1 mM) and BSA (0.03%).

PKR T384W = PKR T384W (Homo sapiens, UniProt P30613, T384W); experiment: PKR T384W Single Point Percent Activation Assay; settings: read-out: Act. % 384W
Sequence of PKR T384W (P30613 whole entry T384W): as the sequence (P30613 whole entry R532W) above, with T384W, W532R counted along it
Procedure: PKR T384W Single Point Percent Activation Assay
as §1, with “180 μL enzyme solution” for “180 μL of enzyme solution”
Final concentration: PKR T384W soluble (300 ng/well), Tris pH 7.5 (50 mM), KCl (100 mM), MgCl2 (5 mM), ADP (0.08 mM), PEP (0.23 mM), NADH (180 μM), LDH (0.5 units, Sigma 59023), DTT (1 mM) and BSA (0.03%).

PKR wt = PKR wt (Homo sapiens, UniProt P30613); experiment: PKR WT Single Point Percent Activation Assay
Sequence of PKR wt (P30613 whole entry): as the sequence (P30613 whole entry R532W) above, with W532R counted along it
Procedure: PKR WT Single Point Percent Activation Assay
as §1
Final concentration: PKR wt (100 ng/well), Tris pH 7.5 (50 mM), KCl (100 mM), MgCl2 (5 mM), ADP (0.48 mM), PEP (0.15 mM), NADH (180 μM), LDH (0.5 units, Sigma 59023), DTT (1 mM) and BSA (0.03%).

Sequence of PKR R510Q (P30613 whole entry R510Q): as the sequence (P30613 whole entry R532W) above, with R510Q, W532R counted along it

| activation at 1 µM (PKR R510Q) | activation at 1 µM (PKR R532W) | activation at 1 µM (PKR T384W) | activation at 1 µM (PKR wt) | Compound |
| --- | --- | --- | --- | --- |
| 1 to 100% | 1 to 100% | 101 to 500% | 1 to 100% | CC(C)[C@H]1CN(Cc2ccc(F)cc2)CCN1C(=O)c1ccc(NS(=O)(=O)c2cccc3cccnc23)cc1 |
| 1 to 100% | 1 to 100% | 101 to 500% | 1 to 100% | CC(C)[C@H]1CN(Cc2cc(F)cc(F)c2)CCN1C(=O)c1ccc(NS(=O)(=O)c2cccc3cccnc23)cc1 |
| 1 to 100% | 101 to 500% | 101 to 500% | 101 to 500% | CC(C)[C@H]1CN(C(C)c2ccc(F)cc2)CCN1C(=O)c1ccc(NS(=O)(=O)c2cccc3cccnc23)cc1 (some centres unmarked) |
| 1 to 100% | 101 to 500% | 101 to 500% | 101 to 500% | O=C(c1ccc(NS(=O)(=O)c2cccc3cccnc23)cc1)N1CCN(Cc2cc(F)cc(F)c2)c2ccccc21 |
| 101 to 500% | 101 to 500% | 1 to 100% | 1 to 100% | C[C@H]1CN(Cc2cc(F)cc(F)c2)CCN1C(=O)c1ccc(NS(=O)(=O)c2cccc3cccnc23)cc1Cl |
| 101 to 500% | 1 to 100% | 1 to 100% | 1 to 100% | O=C(c1ccc(NS(=O)(=O)c2cccc3cccnc23)cc1)N1CCN(Cc2cc(F)cc(F)c2)C[C@@H]1c1ccccc1 |
| 101 to 500% | 1 to 100% | 1 to 100% | 1 to 100% | CC(c1ccc(Cl)c(F)c1)N1CCN(C(=O)c2ccc(NS(=O)(=O)c3cccc4cccnc34)cc2)[C@@H](C)C1 (some centres unmarked) |
| 1 to 100% | 1 to 100% | 101 to 500% | 101 to 500% | CC(c1ccc(F)c(F)c1F)N1CCN(C(=O)c2ccc(NS(=O)(=O)c3cccc4cccnc34)cc2)[C@H](C)C1 (some centres unmarked) |
| 1 to 100% | 101 to 500% | 101 to 500% | 101 to 500% | CC(c1c(F)ccc(F)c1F)N1CCN(C(=O)c2ccc(NS(=O)(=O)c3cccc4cccnc34)cc2)[C@H](C)C1 (some centres unmarked) |
| 1 to 100% | 101 to 500% | 101 to 500% | 101 to 500% | CC(c1ccc(F)cc1Cl)N1CCN(C(=O)c2ccc(NS(=O)(=O)c3cccc4cccnc34)cc2)[C@H](C)C1 (some centres unmarked) |
| 1 to 100% | 101 to 500% | 101 to 500% | 1 to 100% | CC(c1c(F)ccc(F)c1F)N1CCN(C(=O)c2ccc(NS(=O)(=O)c3cccc4cccnc34)cc2)[C@@H](C)C1 (some centres unmarked) |
| 1 to 100% | 101 to 500% | 101 to 500% | 101 to 500% | O=C1CN(Cc2cc(F)cc(F)c2)CCN1C(=O)c1ccc(NS(=O)(=O)c2cccc3cccnc23)cc1 |
| 101 to 500% | 101 to 500% | 1 to 100% | 1 to 100% | CC1CN(Cc2cc(F)cc(F)c2)CC(C)N1C(=O)c1ccc(NS(=O)(=O)c2cccc3cccnc23)cc1 (centres unmarked) |

More lines, now with the values behind:

| Compound | activation at 1 µM (PKR R510Q) | activation at 1 µM (PKR R532W) | activation at 1 µM (PKR T384W) | activation at 1 µM (PKR wt) |
| --- | --- | --- | --- | --- |
| C[C@H]1CN(C(=O)c2ccc(NS(=O)(=O)c3cccc4cccnc34)cc2)CCN1C(=O)c1ccccn1 | 1 to 100% | 101 to 500% | 101 to 500% | 101 to 500% |
| C[C@H]1CN(C(=O)c2ccccn2)CCN1C(=O)c1ccc(NS(=O)(=O)c2cccc3cccnc23)cc1 | 1 to 100% | 101 to 500% | 1 to 100% | 101 to 500% |
| C[C@@H]1CN(C(=O)c2ccc(NS(=O)(=O)c3cccc4cccnc34)cc2)CCN1C(=O)c1ccccn1 | 1 to 100% | 1 to 100% | 101 to 500% | 101 to 500% |
| O=C(c1ccc(NS(=O)(=O)c2cccc3cccnc23)cc1)N1CCN(CC2CC2)c2ccccc21 | 1 to 100% | 101 to 500% | 101 to 500% | 101 to 500% |
| CC(C)OC(=O)N1CCN(C(=O)c2ccc(NS(=O)(=O)c3cccc4cccnc34)cc2)c2ccccc21 | 1 to 100% | 1 to 100% | 1 to 100% | 1 to 100% |
| C[C@H]1CN(CC2CC2)CCN1C(=O)c1ccc(NS(=O)(=O)c2cccc3cccnc23)cc1Cl | 1 to 100% | 1 to 100% | 1 to 100% | 1 to 100% |
| O=C(c1ccc(NS(=O)(=O)c2cccc3cccnc23)cc1)N1CCN(CC2CC2)C[C@@H]1c1ccccc1 | 1 to 100% | 1 to 100% | 1 to 100% | 1 to 100% |
| CC(c1ccccc1F)N1CCN(C(=O)c2ccc(NS(=O)(=O)c3cccc4cccnc34)cc2)[C@H](C)C1 (some centres unmarked) | 1 to 100% | 1 to 100% | 1 to 100% | 1 to 100% |
| C[C@H]1CN(Cc2ccc(F)cc2)CCN1C(=O)c1ccc(NS(=O)(=O)c2cccc3cccnc23)cc1Cl | 1 to 100% | 101 to 500% | 1 to 100% | 1 to 100% |
| C[C@H]1CN(Cc2ccc(Cl)c(F)c2)CCN1C(=O)c1ccc(NS(=O)(=O)c2cccc3cccnc23)cc1Cl | 1 to 100% | 101 to 500% | 101 to 500% | 1 to 100% |
| C[C@H]1CN(CC2CCCC2)CCN1C(=O)c1ccc(NS(=O)(=O)c2cccc3cccnc23)cc1Cl | 1 to 100% | 1 to 100% | 1 to 100% | 1 to 100% |
| C[C@H]1CN(CC2CCOC2)CCN1C(=O)c1ccc(NS(=O)(=O)c2cccc3cccnc23)cc1Cl (some centres unmarked) | 1 to 100% | 101 to 500% | 101 to 500% | 1 to 100% |
| C[C@H]1CN(Cc2c(F)cc(F)cc2F)CCN1C(=O)c1ccc(NS(=O)(=O)c2cccc3cccnc23)cc1Cl | 101 to 500% | 1 to 100% | 101 to 500% | 101 to 500% |
| CC1CN(CC2CC2)CC(C)N1C(=O)c1ccc(NS(=O)(=O)c2cccc3cccnc23)cc1 (centres unmarked) | 1 to 100% | 101 to 500% | 101 to 500% | 101 to 500% |
| CC1CN(Cc2ccc(F)cc2)CC(C)N1C(=O)c1ccc(NS(=O)(=O)c2cccc3cccnc23)cc1 (centres unmarked) | 1 to 100% | 101 to 500% | 1 to 100% | 1 to 100% |
| CC1CN(Cc2ccc(Cl)c(F)c2)CC(C)N1C(=O)c1ccc(NS(=O)(=O)c2cccc3cccnc23)cc1 (centres unmarked) | 101 to 500% | 1 to 100% | 101 to 500% | 101 to 500% |
| CC1CN(CC2CCCCC2)CC(C)N1C(=O)c1ccc(NS(=O)(=O)c2cccc3cccnc23)cc1 (centres unmarked) | 101 to 500% | 101 to 500% | 101 to 500% | 101 to 500% |
| CC1CN(Cc2c(F)ccc(F)c2F)CC(C)N1C(=O)c1ccc(NS(=O)(=O)c2cccc3cccnc23)cc1 (centres unmarked) | 1 to 100% | 101 to 500% | 1 to 100% | 1 to 100% |
| CC1CN(Cc2cc(F)cc(F)c2F)CC(C)N1C(=O)c1ccc(NS(=O)(=O)c2cccc3cccnc23)cc1 (centres unmarked) | 101 to 500% | 101 to 500% | 101 to 500% | 101 to 500% |
